Data as given in patent US10231954B2, “Neurodegenerative therapies” (LYTIX BIOPHARMA AS, priority 2014, dated 2019).
Where two headings read alike, the source gives them in different places.

Assays:
Type in all cases: biochemical
TAO1 = molecular target: T1, TAO1 (Homo sapiens, UniProt Q7L7X3); test: Kinase profiling TAO1; details: for remaining activity at 100 µM: read-out: residual kinase activity, TAO1
T1 sequence (Q7L7X3 1-1001): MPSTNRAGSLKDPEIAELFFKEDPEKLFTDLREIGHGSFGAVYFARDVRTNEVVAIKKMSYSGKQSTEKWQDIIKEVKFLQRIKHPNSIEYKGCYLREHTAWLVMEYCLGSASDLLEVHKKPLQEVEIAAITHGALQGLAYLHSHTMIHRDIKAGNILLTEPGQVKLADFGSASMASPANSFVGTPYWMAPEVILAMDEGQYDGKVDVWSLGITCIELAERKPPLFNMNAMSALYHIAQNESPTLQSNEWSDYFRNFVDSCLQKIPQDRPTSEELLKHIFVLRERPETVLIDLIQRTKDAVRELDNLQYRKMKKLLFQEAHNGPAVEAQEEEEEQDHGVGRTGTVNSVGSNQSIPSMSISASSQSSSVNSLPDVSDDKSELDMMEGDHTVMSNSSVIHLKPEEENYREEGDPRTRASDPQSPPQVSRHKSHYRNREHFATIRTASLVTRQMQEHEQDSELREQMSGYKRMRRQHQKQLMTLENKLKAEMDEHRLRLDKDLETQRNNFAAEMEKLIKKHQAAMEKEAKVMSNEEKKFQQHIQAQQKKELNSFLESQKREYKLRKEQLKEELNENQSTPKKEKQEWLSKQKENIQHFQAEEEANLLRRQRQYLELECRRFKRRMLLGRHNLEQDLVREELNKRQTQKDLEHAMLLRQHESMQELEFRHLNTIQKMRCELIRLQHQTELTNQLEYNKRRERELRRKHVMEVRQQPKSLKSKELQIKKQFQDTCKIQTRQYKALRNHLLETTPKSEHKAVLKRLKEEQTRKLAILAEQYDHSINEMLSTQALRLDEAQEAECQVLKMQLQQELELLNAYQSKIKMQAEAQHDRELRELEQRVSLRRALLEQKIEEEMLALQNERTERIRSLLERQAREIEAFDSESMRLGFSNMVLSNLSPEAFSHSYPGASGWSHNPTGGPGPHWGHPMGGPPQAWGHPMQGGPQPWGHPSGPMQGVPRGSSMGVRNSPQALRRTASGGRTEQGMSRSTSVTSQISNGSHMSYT
Excerpt: (§1) Any value less that 25 is considered to be highly significant inhibition.

EPH-B1 = molecular target: T2, EPH-B1 (Homo sapiens, UniProt P54762); test: Kinase profiling EPH-B1; details: for remaining activity at 100 µM: read-out: residual kinase activity, EPH-B1
T2 sequence (P54762 18-984): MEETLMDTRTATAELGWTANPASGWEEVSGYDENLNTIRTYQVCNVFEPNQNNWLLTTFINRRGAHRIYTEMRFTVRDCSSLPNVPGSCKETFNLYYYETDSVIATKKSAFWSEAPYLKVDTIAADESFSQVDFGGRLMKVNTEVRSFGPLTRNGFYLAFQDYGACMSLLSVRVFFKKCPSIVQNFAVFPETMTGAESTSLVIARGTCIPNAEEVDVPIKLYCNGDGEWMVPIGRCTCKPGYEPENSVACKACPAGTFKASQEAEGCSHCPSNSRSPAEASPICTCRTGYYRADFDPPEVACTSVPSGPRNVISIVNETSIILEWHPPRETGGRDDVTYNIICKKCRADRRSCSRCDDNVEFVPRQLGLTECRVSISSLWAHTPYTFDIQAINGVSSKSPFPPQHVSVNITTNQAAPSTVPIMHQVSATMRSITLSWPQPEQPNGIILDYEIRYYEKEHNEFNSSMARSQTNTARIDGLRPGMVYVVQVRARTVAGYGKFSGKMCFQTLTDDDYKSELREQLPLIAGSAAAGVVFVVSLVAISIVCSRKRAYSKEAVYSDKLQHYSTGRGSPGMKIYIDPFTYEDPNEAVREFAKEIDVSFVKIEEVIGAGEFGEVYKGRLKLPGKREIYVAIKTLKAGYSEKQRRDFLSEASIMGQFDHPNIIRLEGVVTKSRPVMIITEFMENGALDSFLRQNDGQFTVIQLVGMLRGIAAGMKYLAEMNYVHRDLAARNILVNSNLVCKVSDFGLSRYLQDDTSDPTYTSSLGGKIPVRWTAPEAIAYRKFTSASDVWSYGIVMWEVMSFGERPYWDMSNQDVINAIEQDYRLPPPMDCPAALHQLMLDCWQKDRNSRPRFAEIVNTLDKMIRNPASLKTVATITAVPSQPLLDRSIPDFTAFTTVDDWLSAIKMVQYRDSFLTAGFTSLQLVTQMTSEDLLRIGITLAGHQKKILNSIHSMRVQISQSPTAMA
Excerpt: as §1

MAP4K5 = MAP4K5 (Homo sapiens, UniProt Q9Y4K4); test: Kinase profiling MAP4K5; details: for remaining activity at 100 µM: read-out: residual kinase activity, MAP4K5
Excerpt: as §1

ULK2 = molecular target: T3, ULK2 (Homo sapiens, UniProt Q8IYT8); test: Kinase profiling ULK2; details: for remaining activity at 100 µM: read-out: residual kinase activity, ULK2
T3 sequence (Q8IYT8 1-1036): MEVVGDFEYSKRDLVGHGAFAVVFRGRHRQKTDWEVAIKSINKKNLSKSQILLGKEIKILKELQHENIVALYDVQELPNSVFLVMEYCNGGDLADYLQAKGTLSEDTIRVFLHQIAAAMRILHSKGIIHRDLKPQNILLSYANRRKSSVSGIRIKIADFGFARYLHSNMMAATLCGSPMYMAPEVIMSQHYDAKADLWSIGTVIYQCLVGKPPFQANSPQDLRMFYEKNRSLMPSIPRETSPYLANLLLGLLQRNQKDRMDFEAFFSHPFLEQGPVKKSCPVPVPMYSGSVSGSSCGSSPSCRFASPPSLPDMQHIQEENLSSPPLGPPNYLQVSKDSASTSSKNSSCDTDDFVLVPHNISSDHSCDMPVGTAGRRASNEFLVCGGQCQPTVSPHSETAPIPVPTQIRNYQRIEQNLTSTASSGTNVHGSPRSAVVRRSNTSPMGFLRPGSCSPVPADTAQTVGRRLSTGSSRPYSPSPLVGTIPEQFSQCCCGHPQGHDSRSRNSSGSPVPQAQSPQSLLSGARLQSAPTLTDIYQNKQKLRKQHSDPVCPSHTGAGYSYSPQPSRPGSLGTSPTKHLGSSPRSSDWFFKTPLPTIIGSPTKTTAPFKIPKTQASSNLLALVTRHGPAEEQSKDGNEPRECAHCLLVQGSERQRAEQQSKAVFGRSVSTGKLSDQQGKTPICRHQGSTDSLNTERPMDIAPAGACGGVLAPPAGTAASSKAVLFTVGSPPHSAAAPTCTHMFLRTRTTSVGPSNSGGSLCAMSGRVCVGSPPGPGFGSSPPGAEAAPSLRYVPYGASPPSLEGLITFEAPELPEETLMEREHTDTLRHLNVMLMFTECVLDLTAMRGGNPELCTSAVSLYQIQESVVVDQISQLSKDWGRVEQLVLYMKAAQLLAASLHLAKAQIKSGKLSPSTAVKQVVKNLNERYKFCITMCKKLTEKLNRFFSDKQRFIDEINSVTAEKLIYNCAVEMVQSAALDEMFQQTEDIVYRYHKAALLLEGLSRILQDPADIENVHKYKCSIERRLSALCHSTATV
Excerpt: as §1

[1] = 100 micromolar inhibitor concentration, 100 is no change
[2] = 100 micromolar inhibitor, 100 = no change

Sequence of MAP4K5 (Q9Y4K4 whole entry, species assumed): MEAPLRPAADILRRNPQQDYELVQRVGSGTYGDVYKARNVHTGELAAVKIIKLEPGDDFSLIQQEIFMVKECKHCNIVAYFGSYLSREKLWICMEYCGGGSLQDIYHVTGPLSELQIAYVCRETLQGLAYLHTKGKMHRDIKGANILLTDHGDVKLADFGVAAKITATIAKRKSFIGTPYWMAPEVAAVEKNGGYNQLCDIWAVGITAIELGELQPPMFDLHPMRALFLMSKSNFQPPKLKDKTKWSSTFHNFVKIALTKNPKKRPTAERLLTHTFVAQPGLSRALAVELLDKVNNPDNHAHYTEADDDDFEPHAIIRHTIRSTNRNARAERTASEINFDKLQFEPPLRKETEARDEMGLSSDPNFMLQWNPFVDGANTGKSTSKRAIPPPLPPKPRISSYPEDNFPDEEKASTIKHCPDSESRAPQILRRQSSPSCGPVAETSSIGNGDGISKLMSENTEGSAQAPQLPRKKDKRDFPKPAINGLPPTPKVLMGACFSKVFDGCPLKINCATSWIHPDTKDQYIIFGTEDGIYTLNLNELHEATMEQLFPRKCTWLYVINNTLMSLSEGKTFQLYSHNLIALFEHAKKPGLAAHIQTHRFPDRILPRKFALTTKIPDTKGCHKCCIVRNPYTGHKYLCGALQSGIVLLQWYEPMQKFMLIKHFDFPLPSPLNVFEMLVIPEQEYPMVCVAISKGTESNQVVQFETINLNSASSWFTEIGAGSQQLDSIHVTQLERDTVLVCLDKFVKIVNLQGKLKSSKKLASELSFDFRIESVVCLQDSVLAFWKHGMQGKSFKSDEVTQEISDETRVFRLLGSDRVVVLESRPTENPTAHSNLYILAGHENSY

| SMILES | remaining activity at 100 µM (TAO1; [1]) [%] | remaining activity at 100 µM (EPH-B1; [1]) [%] | residual kinase activity, MAP4K5 (MAP4K5; [1]) | residual kinase activity, TAO1 (TAO1; [1]) | residual kinase activity, ULK2 (ULK2; [1]) | residual kinase activity, EPH-B1 (EPH-B1; [1]) | also measured |
| --- | --- | --- | --- | --- | --- | --- | --- |
| CC(=O)Nc1nc2cc(O)ccc2s1 [Compound 01-66, N-(5-hydroxybenzo[d]thiazol-2-yl)acetamide] | – | – | – | – | – | – | remaining activity at 100 µM (TAO1): 30%; remaining activity at 100 µM (EPH-B1): 93% |
| CC(=O)Nc1nc2ccc(O)cc2s1 [Compound 01-71] | 29 | 86 | – | – | – | – | – |
| CC(=O)Nc1nc2ccc(C(F)(F)F)cc2s1 [Compound 01-90] | 71 | 91 | – | – | – | – | remaining activity at 100 µM (MAP4K5; [1]): 40%; remaining activity at 100 µM (ULK2; [1]): 78% |
| CC(=O)Nc1nc2ccc(C#N)cc2s1 [Compound 01-94] | 46 | 94 | – | – | – | – | remaining activity at 100 µM (MAP4K5; [1]): 38%; remaining activity at 100 µM (ULK2; [1]): 68% |
| CC(=O)Nc1cccc(NC(=O)c2nc3ccc(O)cc3s2)c1 [Compound 03-07, N-(3-acetamidophenyl)-6-hydroxybenzo[d]thiazole-2-carboxamide] | – | – | – | – | – | – | remaining activity at 100 µM (MAP4K5; [2]): 56%; remaining activity at 100 µM (TAO1; [2]): 84%; remaining activity at 100 µM (ULK2; [2]): 81%; remaining activity at 100 µM (EPH-B1; [2]): 104% |
| O=C(Nc1nc2cc(O)ccc2s1)c1ccncc1 [Compound 03-11] | – | – | 92 | 77 | 86 | 99 | – |
| O=C(Nc1nc2ccc(O)cc2s1)c1ccccn1 [Compound 03-12] | – | – | 74 | 74 | 87 | 94 | – |
| O=C(Nc1nc2cc(O)ccc2s1)c1ccccn1 [Compound 03-13] | – | – | 50 | 80 | 56 | 98 | – |
| COc1ccc2sc(NC(C)=O)nc2c1 [Compound 03-21] | 72 | 99 | – | – | – | – | remaining activity at 100 µM (MAP4K5; [1]): 96%; remaining activity at 100 µM (ULK2; [1]): 86% |
| CC(=O)Nc1nc2ccccc2s1 [Compound 03-32] | – | – | 95 | 73 | 92 | 97 | – |
| O=C(Nc1nc2cc(O)ccc2s1)c1cccnc1 [Compound 03-33] | – | – | 58 | 87 | 85 | 104 | – |
| O=C(Nc1nc2ccc(O)cc2s1)c1ccccc1 [Compound 03-60] | – | – | 31 | 62 | 69 | 98 | – |
| CC(=O)Nc1nc2cc(C(F)(F)F)ccc2s1 [Compound 03-73] | 88 | 114 | – | – | – | – | remaining activity at 100 µM (MAP4K5; [1]): 73%; remaining activity at 100 µM (ULK2; [1]): 88% |
| CC(=O)Nc1nc2cc(C)ccc2s1 [Compound 03-76] | – | – | 83 | 76 | 88 | 103 | – |
| CC(=O)Nc1nc2cc(F)ccc2s1 [Compound 03-77] | 69 | 103 | – | – | – | – | remaining activity at 100 µM (MAP4K5; [1]): 65%; remaining activity at 100 µM (ULK2; [1]): 83% |
| O=C(Nc1nc2ccc(O)cc2s1)c1ccncc1 [Compound 08-42] | – | – | 67 | 81 | 63 | 93 | – |
| O=C(Nc1nc2ccc(O)cc2s1)c1cccnc1 [Compound 08-44] | – | – | 81 | 68 | 84 | 93 | – |
